In patent publication US11872228B2, “Pharmaceutical composition containing thiamine derivative for prevention or treatment of sepsis” (KYUNGPOOK NATIONAL UNIVERSITY INDUSTRY-ACADEMIC COOPERATION …, priority 2021, dated 2024):
Read-outs that look alike come from different tables or passages of the source.

Experiments:
TNFα [1] = experiment: Inhibition of TNFα expression in LPS-activated dendritic cells (ELISA of supernatants); type: cell-based, C57BL/6J male mice; details: for TNFα (pg/mL): 100 ng/mL LPS 18 h
Method: (§1) The dendritic cells at 1×10^6 cells/mL were treated with benfotiamine and fursultiamine at different concentrations of 0, 1, 10, and 100 and allithiamine at different concentrations of 0, 1, and 10 μM.
Thereafter, the dendritic cells were activated with 100 ng/mL LPS for 18 hours.

IL-1β [2] = experiment: Inhibition of IL-1β expression in LPS-primed, ATP-treated dendritic cells; type: cell-based, C57BL/6J male mice; details: for IL-1β: LPS priming + 5 mM ATP
Method: Bone marrow was extracted from the legs of six- to eight-week old C57BL/6J male mice, and subjected to red blood cell (RBC) lysis, followed by differentiation into dendritic cells in RPMI 1640 medium (10% fetal bovine serum (FBS) and 1% penicillin-streptomycin) along with 20 ng/ml granulocyte-macrophage colony-stimulating factor (GM-CSF) for six days. The dendritic cells at 1×10^6 cells/mL were treated with benfotiamine and fursultiamine at different concentrations of 0, 1, 10, and 100 and allithiamine at different concentrations of 0, 1, and 10 μM.
The dendritic cells were subjected to pro-IL1b priming by the treatment with 500 ng/mL LPS for 3 hours, and then treated with benfotiamine at 0, 10, 50, or 100 and fursultiamine at 0, 10, 50, or 100 μM, for 15 minutes. Then, pro-IL1b was converted into IL-1β through pro-IL1b cleavage, followed by 5 mM ATP treatment for inducing inflammasome formation.

CD40 = CD40 expression in CD11c+ dendritic cells by flow cytometry; type: cell-based, C57BL/6J male mice
Method: as §1
(§2) The dendritic cells were measured for CD40 and CD86 in CD11c+ cells by flow cytometry, and the results are shown in FIGS. 6A and 6B and Tables 5 and 6.

CD86 [3] = experiment: CD86 expression in CD11c+ dendritic cells by flow cytometry; type: cell-based, C57BL/6J male mice
Method: as §1, §2

TNFα [4] = experiment: Inhibition of TNFα expression in LPS-activated dendritic cells (ELISA of supernatants); type: cell-based, C57BL/6J male mice; details: for TNFα (pg/mL): dendritic cells, 100 ng/mL LPS 18 h; for TNFα: dendritic cells not stimulated by LPS; for TNFα expression level relative to LPS alone: LPS-activated dendritic cells
CD86 [5] = experiment: CD86 expression in CD11c+ dendritic cells by flow cytometry; type: cell-based, C57BL/6J male mice; details: 50 μM, 100 ng/mL LPS
[6] = test system: LPS-induced sepsis mouse model
Method: (The signs of the moribund state: impaired mobility, inability to maintain upright position, prolonged lack of activity and labored breathing)
Six- to eight-week old C57BL/6J male mice were grouped, each group containing seven mice. The whole experimental schedule is shown FIG. 1. The mice were fed fursultiamine 24 hours and 30 minutes before intraperitoneal injection of 40 mg/kg LPS, and then again administered fursultiamine 6 hours after the intraperitoneal injection, and then the survival rates of the mice were monitored and the results are shown in FIG. 2 and Table 1.

IL-1β [7] = test system: IL-1β
[8] = 1 μM, dendritic cells, 100 ng/mL LPS
[9] = 10 μM, dendritic cells, 100 ng/mL LPS
[10] = 100 μM, dendritic cells not stimulated by LPS
[11] = 100 μM, dendritic cells, 100 ng/mL LPS

SMILES: C/C(=C(\CCOP(=O)(O)O)SC(=O)c1ccccc1)N(C=O)Cc1cnc(C)nc1N [Benfotiamine, benfotiamine]
- TNFα (pg/mL) (TNFα [1]; 1 μM, dendritic cells): 4,909.05 pg/mL
- TNFα (pg/mL) (TNFα [1]; 10 μM, dendritic cells): 4,614.42 pg/mL
- TNFα (pg/mL) (TNFα [1]; 100 μM, dendritic cells): 4,696.43 pg/mL
- Inhibition of the TNFα expression increased by LPS (in words) (TNFα [1]; dendritic cells, up to 100 μM): could not inhibit
- IL-1β (IL-1β [2]; 10 μM): 912.2951 pg/mL
- IL-1β (IL-1β [2]; 50 μM): 914.9398 pg/mL
- IL-1β (IL-1β [2]; 100 μM): 914.2512 pg/mL
- Inhibition of the IL-1β expression increased by LPS (in words) (IL-1β [2]; up to 100 μM): could not inhibit
- CD40 (Mean fluorescence intensity; MFI) (CD40; [8]): 2,134 MFI
- CD40 (Mean fluorescence intensity; MFI) (CD40; [9]): 1,975 MFI
- CD40 (Mean fluorescence intensity; MFI) (CD40; [10]): 248 MFI
- CD40 (Mean fluorescence intensity; MFI) (CD40; [11]): 1,803 MFI
- Inhibition of the CD40 expression increased by LPS (in words) (CD40; dendritic cells, up to 100 μM): could not inhibit
- CD86 (Mean fluorescence intensity; MFI) (CD86 [3]; [8]): 2,734 MFI
- CD86 (Mean fluorescence intensity; MFI) (CD86 [3]; [9]): 2,198 MFI
- CD86 (Mean fluorescence intensity; MFI) (CD86 [3]; [10]): 382 MFI
- CD86 (Mean fluorescence intensity; MFI) (CD86 [3]; [11]): 430 MFI
- Inhibition of the CD86 expression increased by LPS (in words) (CD86 [3]; dendritic cells, up to 100 μM): could not inhibit
- TNFα (pg/mL) (TNFα [4]; 50 μM): 4,806.97 pg/mL
- TNFα (TNFα [4]; 100 μM): 84.82 pg/mL
- CD86 (Mean fluorescence intensity; MFI) (CD86 [5]): 2,448 MFI

SMILES: CC(=C(CCO)SSCC1CCCO1)N(C=O)Cc1cnc(C)nc1N (stereo in doubt) [Fursultiamine, fursultiamine]
- Survival despite LPS injection (in words) ([6]; fed 100 mg/kg, 40 mg/kg LPS i.p.): not dead
- Percent survival (%) ([6]; fursultiamine 100 mg/kg fed 24 h and 30 min before and 6 h after 40 mg/kg LPS i.p., 0 d): 100%
- Percent survival (%) ([6]; fursultiamine 100 mg/kg fed, 40 mg/kg LPS i.p., 1 d): 100%
- Percent survival (%) ([6]; fursultiamine 100 mg/kg fed, 40 mg/kg LPS i.p., 2 d): 100%
- Percent survival (%) ([6]; fursultiamine 100 mg/kg fed, 40 mg/kg LPS i.p., 3 d): 100%
- Percent survival (%) ([6]; fursultiamine 100 mg/kg fed, 40 mg/kg LPS i.p., 4 d): 100%
- Percent survival (%) ([6]; fursultiamine 100 mg/kg fed, 40 mg/kg LPS i.p., 5 d): 100%
- Percent survival (%) ([6]; fursultiamine 100 mg/kg fed, 40 mg/kg LPS i.p., 6 d): 100%
- Percent survival (%) ([6]; fursultiamine 100 mg/kg fed, 40 mg/kg LPS i.p., 7 d): 100%
- TNFα (pg/mL) (TNFα [1]; 1 μM, dendritic cells): 4,954.64 pg/mL
- TNFα expression level relative to LPS alone (TNFα [1]; 10 μM, LPS-activated dendritic cells): about 68.60%
- TNFα (pg/mL) (TNFα [1]; 10 μM, dendritic cells): 3,600.63 pg/mL
- TNFα (pg/mL) (TNFα [1]; 100 μM, dendritic cells): 1,628.26 pg/mL
- IL-1β (IL-1β [2]; 10 μM): 878.0075 pg/mL
- IL-1β expression level relative to LPS + ATP alone (IL-1β [2]; 50 μM): about 85.8237%
- IL-1β (IL-1β [2]; 50 μM): 799.4891 pg/mL
- IL-1β expression level relative to LPS + ATP alone (IL-1β [2]; 100 μM): about 63.6037%
- IL-1β (IL-1β [2]; 100 μM): 592.4987 pg/mL
- CD40 (Mean fluorescence intensity; MFI) (CD40; [8]): 1,992 MFI
- CD40 (Mean fluorescence intensity; MFI) (CD40; [9]): 2,026 MFI
- CD40 expression level relative to LPS alone (CD40; 100 μM, dendritic cells): about 62%
- CD40 (Mean fluorescence intensity; MFI) (CD40; [10]): 253 MFI
- CD40 (Mean fluorescence intensity; MFI) (CD40; [11]): 1,245 MFI
- CD86 (Mean fluorescence intensity; MFI) (CD86 [3]; [8]): 2,684 MFI
- CD86 (Mean fluorescence intensity; MFI) (CD86 [3]; [9]): 2,864 MFI
- CD86 expression level relative to LPS alone (CD86 [3]; 100 μM, dendritic cells): about 13%
- CD86 (Mean fluorescence intensity; MFI) (CD86 [3]; [10]): 382 MFI
- CD86 (Mean fluorescence intensity; MFI) (CD86 [3]; [11]): 351 MFI
- IL-1β (IL-1β [7]; fursultiamine (50 mg/kg as in table; 100 mg/kg in text) along with LPS, 0 h): 4.483 pg/mL
- IL-1β (IL-1β [7]; fursultiamine along with LPS, 1 h): 6.115 pg/mL
- IL-1β (IL-1β [7]; fursultiamine along with LPS, 3 h): 96.715 pg/mL
- IL-1β (IL-1β [7]; fursultiamine along with LPS, 6 h): 186.088 pg/mL
- IL-1β expression level relative to the control without administration (IL-1β [7]; fursultiamine along with LPS, 6 hours): about 54.936%
- IL-1β (IL-1β [7]; fursultiamine along with LPS, 12 h): 495.824 pg/mL
- IL-1β expression level relative to the control without administration (IL-1β [7]; fursultiamine along with LPS, 12 hours): about 60.777%
- IL-1β (IL-1β [7]; fursultiamine along with LPS, 18 h): 171.451 pg/mL
- IL-1β expression level relative to the control without administration (IL-1β [7]; fursultiamine along with LPS, 18 hours): about 29.673%
- TNFα expression level relative to LPS alone (TNFα [4]; 50 μM): about 57.22%
- TNFα (pg/mL) (TNFα [4]; 50 μM): 3,003.47 pg/mL
- TNFα expression level relative to LPS alone (TNFα [4]; 100 μM): about 31.02%
- TNFα (TNFα [4]; 100 μM): 38.37 pg/mL
- CD86 (Mean fluorescence intensity; MFI) (CD86 [5]): 1,275 MFI
